The assay concerns mitochondrial Na+/Ca2+ exchanger. The assay is described as follows: fura-2 [Ca2+]i plateau after depolarization in intact neurons. The format is cell-based, Aquarana catesbeiana.

Broadly, the IC50 is the concentration that inhibits the measured activity by half. A lower IC50 goes with greater potency in that assay. In turn, `O=C1CSC(c2ccccc2Cl)c2cc(Cl)ccc2N1` (stereo not shown) [CGP, CGP 37157] came in with an IC50 of around 560 nM.

These data come from article PMC2217215 (The Journal of General Physiology, 2000).
